Tested on: 931267-113-T-J1-PDC multicell spheroid viability
Experiment: Anticancer human tumor 931267-113-T-J1-PDC patient-derived colon adenocarcinoma cell line growth inhibition [PI3K]
Settings: for viability, T/C: stronger effect = lower value; active means viability on the fitted dose curve at most 10% of control; inactive means the rest
How it was run: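 Targeted small molecules plus PI3K inhibitors, half-log dose series from Cmax (default top 10 microM), were applied to heterotypic spheroids of cancer cells with HUVEC and MSCs. Viability indicated growth inhibition.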

[1] = curve of first compound, second compound 0.00316 µM
[2] = curve of first compound, second compound 0.01 µM
[3] = curve of first compound, second compound 0.0316 µM
[4] = curve of first compound, second compound 0.1 µM
[5] = curve of first compound, second compound 0.316 µM
[6] = curve of first compound, second compound 1 µM
[7] = second compound 0.00316 µM, first compound 0.0316 µM
[8] = second compound 0.00316 µM, first compound 0.1 µM
[9] = second compound 0.01 µM, first compound 0.0316 µM
[10] = second compound 0.01 µM, first compound 0.1 µM
[11] = second compound 0.0316 µM, first compound 0.0316 µM
[12] = second compound 0.0316 µM, first compound 0.1 µM
[13] = second compound 0.1 µM, first compound 0.0316 µM
[14] = second compound 0.1 µM, first compound 0.1 µM
[15] = second compound 0.316 µM, first compound 0.0316 µM
[16] = second compound 0.316 µM, first compound 0.1 µM
[17] = second compound 1 µM, first compound 0.0316 µM
[18] = second compound 1 µM, first compound 0.1 µM
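Further: viability read 7 days after compound addition.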

Cn1cnc2c(F)c(Nc3ccc(Br)cc3Cl)c(C(=O)NOCCO)cc21 + COc1c(OCCCN2CCOCC2)ccc2c3n(c(=NC(=O)c4cnc(N)nc4)nc12)CCN3
42.2 nM: IC50 [3]
inactive: viability, T/C (second compound 0.00316 µM, first compound 0.00949 µM) 83.7% | viability, T/C (second compound 0.00316 µM, first compound 0.03 µM) 71% | viability, T/C (second compound 0.00316 µM, first compound 0.0949 µM) 51.1% | viability, T/C (second compound 0.00316 µM, first compound 0.3 µM) 31.4% | viability, T/C (second compound 0.00316 µM, first compound 0.949 µM) 18.3% | viability, T/C (second compound 0.01 µM, first compound 0.00949 µM) 88.6% | viability, T/C (second compound 0.01 µM, first compound 0.03 µM) 73.1% | viability, T/C (second compound 0.01 µM, first compound 0.0949 µM) 45% | viability, T/C (second compound 0.01 µM, first compound 0.3 µM) 25.6% | viability, T/C (second compound 0.01 µM, first compound 0.949 µM) 15.3% | viability, T/C (second compound 0.0316 µM, first compound 0.00949 µM) 76.4% | viability, T/C (second compound 0.0316 µM, first compound 0.03 µM) 57% | viability, T/C (second compound 0.0316 µM, first compound 0.0949 µM) 33.7% | viability, T/C (second compound 0.0316 µM, first compound 0.3 µM) 17.5% | viability, T/C (second compound 0.1 µM, first compound 0.00949 µM) 56.4% | viability, T/C (second compound 0.1 µM, first compound 0.03 µM) 37.7% | viability, T/C (second compound 0.1 µM, first compound 0.0949 µM) 19.6% | viability, T/C (second compound 0.1 µM, first compound 0.3 µM) 11.9% | viability, T/C (second compound 0.316 µM, first compound 0.00949 µM) 39.2% | viability, T/C (second compound 0.316 µM, first compound 0.03 µM) 25.2% | viability, T/C (second compound 0.316 µM, first compound 0.0949 µM) 14.3% | viability, T/C (second compound 1 µM, first compound 0.00949 µM) 26.2% | viability, T/C (second compound 1 µM, first compound 0.03 µM) 17.8%
81 nM: IC50 [2]
< 9.49 nM: IC50 [5] | IC50 [6]
103 nM: IC50 [1]
14 nM: IC50 [4]
active: viability, T/C (second compound 0.00316 µM, first compound 3 µM) 9.54% | viability, T/C (second compound 0.01 µM, first compound 3 µM) 8.03% | viability, T/C (second compound 0.0316 µM, first compound 0.949 µM) 10.3% | viability, T/C (second compound 0.0316 µM, first compound 3 µM) 5.43% | viability, T/C (second compound 0.1 µM, first compound 0.949 µM) 7.31% | viability, T/C (second compound 0.1 µM, first compound 3 µM) 4.08% | viability, T/C (second compound 0.316 µM, first compound 0.3 µM) 8.7% | viability, T/C (second compound 0.316 µM, first compound 0.949 µM) 5.28% | viability, T/C (second compound 0.316 µM, first compound 3 µM) 2.51% | viability, T/C (second compound 1 µM, first compound 0.0949 µM) 9.52% | viability, T/C (second compound 1 µM, first compound 0.3 µM) 4.72% | viability, T/C (second compound 1 µM, first compound 0.949 µM) 2.93% | viability, T/C (second compound 1 µM, first compound 3 µM) 1.42%

Cn1ncnc1[C@H]1c2n[nH]c(=O)c3cc(F)cc(c23)N[C@@H]1c1ccc(F)cc1 + CC(Nc1ccc2c(c1)OCCn1cc(N3C(=O)OCC3C(F)F)nc1-2)C(N)=O
inactive: viability, T/C (second compound 0.00316 µM, first compound 0.000316 µM) 98.5% | viability, T/C (second compound 0.00316 µM, first compound 0.001 µM) 113% | viability, T/C (second compound 0.00316 µM, first compound 0.00316 µM) 104% | viability, T/C (second compound 0.00316 µM, first compound 0.01 µM) 111% | viability, T/C [7] 103% | viability, T/C [8] 102% | viability, T/C (second compound 0.01 µM, first compound 0.000316 µM) 114% | viability, T/C (second compound 0.01 µM, first compound 0.001 µM) 108% | viability, T/C (second compound 0.01 µM, first compound 0.00316 µM) 91.5% | viability, T/C (second compound 0.01 µM, first compound 0.01 µM) 114% | viability, T/C [9] 104% | viability, T/C [10] 108% | viability, T/C (second compound 0.0316 µM, first compound 0.000316 µM) 109% | viability, T/C (second compound 0.0316 µM, first compound 0.001 µM) 96.9% | viability, T/C (second compound 0.0316 µM, first compound 0.00316 µM) 105% | viability, T/C (second compound 0.0316 µM, first compound 0.01 µM) 103% | viability, T/C [11] 108% | viability, T/C [12] 102% | viability, T/C (second compound 0.1 µM, first compound 0.000316 µM) 101% | viability, T/C (second compound 0.1 µM, first compound 0.001 µM) 87.5% | viability, T/C (second compound 0.1 µM, first compound 0.00316 µM) 86.1% | viability, T/C (second compound 0.1 µM, first compound 0.01 µM) 89.1% | viability, T/C [13] 95.2% | viability, T/C [14] 87% | viability, T/C (second compound 0.316 µM, first compound 0.000316 µM) 95.6% | viability, T/C (second compound 0.316 µM, first compound 0.001 µM) 89.6% | viability, T/C (second compound 0.316 µM, first compound 0.00316 µM) 81.2% | viability, T/C (second compound 0.316 µM, first compound 0.01 µM) 80.4% | viability, T/C [15] 85.1% | viability, T/C [16] 94.1% | viability, T/C (second compound 1 µM, first compound 0.000316 µM) 78.2% | viability, T/C (second compound 1 µM, first compound 0.001 µM) 82% | viability, T/C (second compound 1 µM, first compound 0.00316 µM) 80.7% | viability, T/C (second compound 1 µM, first compound 0.01 µM) 76.9% | viability, T/C [17] 84.6% | viability, T/C [18] 73.6%
> 100 nM: IC50 [1] | IC50 [2] | IC50 [3] | IC50 [4] | IC50 [5] | IC50 [6]

C[C@@H](NC(=O)c1ncnc(N)c1Cl)c1ncc(C(=O)Nc2cc(C(F)(F)F)c(Cl)cn2)s1 + CC(Nc1ccc2c(c1)OCCn1cc(N3C(=O)OCC3C(F)F)nc1-2)C(N)=O
> 10000 nM: IC50 [1] | IC50 [2] | IC50 [3]
7880 nM: IC50 [5]
8970 nM: IC50 [4]
4870 nM: IC50 [6]
inactive: viability, T/C [7] 114% | viability, T/C [8] 129% | viability, T/C (second compound 0.00316 µM, first compound 0.316 µM) 110% | viability, T/C (second compound 0.00316 µM, first compound 1 µM) 121% | viability, T/C (second compound 0.00316 µM, first compound 3.16 µM) 90.8% | viability, T/C (second compound 0.00316 µM, first compound 10 µM) 75.3% | viability, T/C [9] 116% | viability, T/C [10] 108% | viability, T/C (second compound 0.01 µM, first compound 0.316 µM) 111% | viability, T/C (second compound 0.01 µM, first compound 1 µM) 118% | viability, T/C (second compound 0.01 µM, first compound 3.16 µM) 101% | viability, T/C (second compound 0.01 µM, first compound 10 µM) 66.7% | viability, T/C [11] 99.7% | viability, T/C [12] 124% | viability, T/C (second compound 0.0316 µM, first compound 0.316 µM) 119% | viability, T/C (second compound 0.0316 µM, first compound 1 µM) 110% | viability, T/C (second compound 0.0316 µM, first compound 3.16 µM) 97.9% | viability, T/C (second compound 0.0316 µM, first compound 10 µM) 63.6% | viability, T/C [13] 116% | viability, T/C [14] 93.3% | viability, T/C (second compound 0.1 µM, first compound 0.316 µM) 101% | viability, T/C (second compound 0.1 µM, first compound 1 µM) 95.9% | viability, T/C (second compound 0.1 µM, first compound 3.16 µM) 78% | viability, T/C (second compound 0.1 µM, first compound 10 µM) 46.4% | viability, T/C [15] 94% | viability, T/C [16] 97.5% | viability, T/C (second compound 0.316 µM, first compound 0.316 µM) 96.4% | viability, T/C (second compound 0.316 µM, first compound 1 µM) 87% | viability, T/C (second compound 0.316 µM, first compound 3.16 µM) 75.2% | viability, T/C (second compound 0.316 µM, first compound 10 µM) 43.5% | viability, T/C [17] 83% | viability, T/C [18] 88.8% | viability, T/C (second compound 1 µM, first compound 0.316 µM) 80.7% | viability, T/C (second compound 1 µM, first compound 1 µM) 77.2% | viability, T/C (second compound 1 µM, first compound 3.16 µM) 62.3% | viability, T/C (second compound 1 µM, first compound 10 µM) 29.7%

CC1(C)CCC(Nc2ncc(C(F)(F)F)c(-c3c[nH]c4c(P(C)(C)=O)c(C#N)ccc34)n2)CN1 (configuration not stated)
> 10000 nM: IC50 (curve of compound)
inactive: viability, T/C (compound 0.0316 µM) 107% [middle of 4 runs] | viability, T/C (compound 0.1 µM) 102% [middle of 4 runs] | viability, T/C (compound 0.316 µM) 89.3% [middle of 4 runs] | viability, T/C (compound 1 µM) 85.7% [middle of 4 runs] | viability, T/C (compound 10 µM) 64.5% [middle of 4 runs]

Reference: PubChem BioAssay AID1963970 (Molecular Pharmacology Branch, DTP, NCI, 2024)
